Key:
Assay type in all cases: in vivo
[1] = test system: wheat (Triticum aestivum); assay: Test A preemergence wheat; conditions: 0 to 100 scale, 0 no effect, 100 complete control
Excerpt: (§1) Seeds of plant species selected from barnyardgrass (Echinochloa crus-galli), kochia (Kochia scoparia), ragweed (common ragweed, Ambrosia elatior), ryegrass, Italian (Italian ryegrass, Lolium multiflorum), crabgrass, large (large crabgrass, Digitaria sanguinalis), foxtail, giant (giant foxtail, Setaria faberii), morningglory (Ipomoea spp.), pigweed (Amaranthus retroflexus), velvetleaf (Abutilon theophrasti), wheat (Triticum aestivum), and corn (Zea mays) were planted into a blend of loam soil and sand and treated preemergence with a directed soil spray using test chemicals formulated in a non-phytotoxic solvent mixture which included a surfactant.
(§2) At the same time, plants selected from these crop and weed species and also blackgrass (Alopecurus myosuroides), and galium (catchweed bedstraw, Galium aparine) were planted in pots containing the same blend of loam soil and sand and treated with postemergence applications of test chemicals formulated in the same manner. Plants ranged in height from 2 to 10 cm and were in the one- to two-leaf stage for the postemergence treatment. Treated plants and untreated controls were maintained in a greenhouse for approximately 10 d, after which time all treated plants were compared to untreated controls and visually evaluated for injury. Plant response ratings, summarized in Table A, are based on a 0 to 100 scale where 0 is no effect and 100 is complete control. A dash (-) response means no test result.

[2] = test system: barnyardgrass (Echinochloa crus-galli); assay: Test A preemergence barnyardgrass; conditions: 0 to 100 scale
In short: (§3)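 Compounds in non-phytotoxic solvent with surfactant, applied preemergence as directed soil spray on seeds in loam–sand blend, or postemergence to plants 2–10 cm tall at one- to two-leaf stage. Greenhouse ~10 d, then visual injury versus untreated controls, 0 (no effect) to 100 (complete control).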

[3] = test system: pigweed (Amaranthus retroflexus); assay: Test A preemergence pigweed; conditions: 0 to 100 scale, 0 no effect, 100 complete control
In short: as §3

[4] = test system: foxtail, giant (giant foxtail, Setaria faberii); assay: Test A preemergence foxtail, giant; conditions: 0 to 100 scale, 0 no effect, 100 complete control
In short: as §3

[5] = test system: ducksalad (Heteranthera limosa); assay: Test B flooded paddy test ducksalad; conditions: Table B, Flood, 250 g ai/ha, scale 0 to 100
In short: (§4)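 Plants at 2-leaf stage in pots flooded 3 cm above soil; compounds applied directly into paddy water, depth kept throughout.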

[6] = test system: velvetleaf (Abutilon theophrasti); assay: Test A preemergence velvetleaf; conditions: 0 to 100 scale, 0 no effect, 100 complete control
Excerpt: as §1, §2

[7] = test system: foxtail, giant (giant foxtail, Setaria faberii); assay: Test A postemergence foxtail, giant; conditions: 0 to 100 scale, 0 is no effect, 100 is complete control
In short: as §3

[8] = test system: morningglory (Ipomoea spp.); assay: Test A preemergence morningglory; conditions: 0 to 100 scale, 0 no effect, 100 complete control
Excerpt: as §1, §2

[9] = test system: velvetleaf (Abutilon theophrasti); assay: Test A postemergence velvetleaf; conditions: 0 to 100 scale, 0 is no effect, 100 is complete control
Excerpt: as §1, §2

[10] = test system: corn (Zea mays); assay: Test A preemergence corn; conditions: 0 to 100 scale
Excerpt: as §1, §2

[11] = test system: corn (Zea mays); assay: Test A postemergence corn; conditions: 0 to 100 scale, 0 is no effect, 100 is complete control
In short: as §3

[12] = test system: wheat (Triticum aestivum); assay: Test A postemergence wheat; conditions: 0 to 100 scale, 0 is no effect, 100 is complete control
In short: as §3

[13] = test system: barnyardgrass (Echinochloa crus-galli); assay: Test A postemergence barnyardgrass; conditions: 0 to 100 scale, 0 is no effect, 100 is complete control
In short: as §3

[14] = test system: pigweed (Amaranthus retroflexus); assay: Test A postemergence pigweed; conditions: 0 to 100 scale, 0 is no effect, 100 is complete control
In short: as §3

[15] = test system: crabgrass, large (large crabgrass, Digitaria sanguinalis); assay: Test A postemergence crabgrass, large; conditions: 0 to 100 scale, 0 is no effect, 100 is complete control
Excerpt: as §1, §2

[16] = test system: sedge, umbrella (small-flower umbrella sedge, Cyperus difformis); assay: Test B flooded paddy test sedge, umbrella; conditions: Table B, Flood, 250 g ai/ha, scale 0 to 100
In short: as §4

[17] = test system: barnyardgrass (Echinochloa crus-galli); assay: Test B flooded paddy test barnyardgrass; conditions: Table B, Flood, 250 g ai/ha, scale 0 to 100
In short: as §4

[18] = test system: crabgrass, large (large crabgrass, Digitaria sanguinalis); assay: Test A preemergence crabgrass, large; conditions: 0 to 100 scale
Excerpt: as §1, §2

[19] = test system: rice (Oryza sativa); assay: Test B flooded paddy test rice; conditions: Table B, Flood, 250 g ai/ha, scale 0 to 100
In short: as §4

[20] = test system: morningglory (Ipomoea spp.); assay: Test A postemergence morningglory; conditions: 0 to 100 scale, 0 is no effect, 100 is complete control
Excerpt: as §1, §2

[21] = 125 g ai/ha, 0 no effect, 100 complete control
[22] = 500 g ai/ha, 0 is no effect, 100 is complete control

## O=C1NCCC(c2ccc(F)c(F)c2)C1C(=O)Nc1ccccc1C(F)(F)F (racemic) [Compound 6]
[1]; 125 g ai/ha
  Wheat plant response rating: 0
[1]; 500 g ai/ha
  Wheat plant response rating: 0
[2]; [21]
  Barnyardgrass plant response rating: 60
[2]; [22]
  Plant response rating, Barnyardgrass: 80
[3]; 125 g ai/ha
  Pigweed plant response rating: 0
[3]; 500 g ai/ha
  Pigweed plant response rating: 0
[4]; 125 g ai/ha
  Foxtail, Giant plant response rating: 60
[4]; 500 g ai/ha
  Foxtail, Giant plant response rating: 90
[5]
  Plant response rating: 60
[6]; 125 g ai/ha
  Velvetleaf plant response rating: 0
[6]; 500 g ai/ha
  Velvetleaf plant response rating: 0
[7]; 125 g ai/ha
  Plant response rating, Foxtail, Giant: 30
[7]; 500 g ai/ha
  Plant response rating, Foxtail, Giant: 70
[8]; 125 g ai/ha
  Morningglory plant response rating: 0
[8]; 500 g ai/ha
  Morningglory plant response rating: 0
[9]; 125 g ai/ha
  Plant response rating, Velvetleaf: 0
[9]; 500 g ai/ha
  Plant response rating, Velvetleaf: 0
[10]; [21]
  Corn plant response rating: 0
[10]; [22]
  Plant response rating, Corn: 0
[11]; 125 g ai/ha
  Plant response rating, Corn: 0
[11]; 500 g ai/ha
  Plant response rating, Corn: 0
[12]; 125 g ai/ha
  Plant response rating, Wheat: 0
[12]; 500 g ai/ha
  Plant response rating, Wheat: 0
[13]; 125 g ai/ha
  Plant response rating, Barnyardgrass: 0
[13]; 500 g ai/ha
  Plant response rating, Barnyardgrass: 50
[14]; 125 g ai/ha
  Plant response rating, Pigweed: 0
[14]; 500 g ai/ha
  Plant response rating, Pigweed: 30
[15]; 125 g ai/ha
  Plant response rating, Crabgrass, Large: 50
[15]; 500 g ai/ha
  Plant response rating, Crabgrass, Large: 80
[16]
  Plant response rating: 0
[17]
  Plant response rating: 0
[18]; [21]
  Crabgrass, Large plant response rating: 90
[18]; [22]
  Plant response rating, Crabgrass, Large: 90
[19]
  Plant response rating: 0
[20]; 125 g ai/ha
  Plant response rating, Morningglory: 0
[20]; 500 g ai/ha
  Plant response rating, Morningglory: 0
